Where two headings read alike, the source gives them in different places.
Experiments:
[1] = system: HCV replicon in HUH-7 cells; experiment: HCV replicon FRET assay; format: cell-based, HCV strain 1b; settings: Hepatitis C virus
Source text: An HCV replicon whole cell system was established as described by Lohmann V, Korner F, Koch J, Herian U, Theilmann L, Bartenschlager R., Science 285(5424):110-3 (1999). This system enabled us to evaluate the effects of our HCV Protease compounds on HCV RNA replication. Briefly, using the HCV strain 1b sequence described in the Lohmann paper (Assession number: AJ238799), an HCV cDNA was synthesized by Operon Technologies, Inc. (Alameda, Calif.), and the full-length replicon was then assembled in plasmid pGem9zf(+) (Promega, Madison, Wis.) using standard molecular biology techniques. The replicon consists of (i) the HCV 5′ UTR fused to the first 12 amino acids of the capsid protein, (ii) the neomycin phosphotransferase gene (neo), (iii) the IRES from encephalomyocarditis virus (EMCV), and (iv) HCV NS3 to NS5B genes and the HCV 3′ UTR. Plasmid DNAs were linearized with ScaI and RNA transcripts were synthesized in vitro using the T7 MegaScript transcription kit (Ambion, Austin, Tex.) according to manufacturer's directions. In vitro transcripts of the cDNA were transfected into the human hepatoma cell line, HUH-7. […] Resulting cell lines were characterized for positive and negative strand RNA production and protein production over time.
The HCV replicon FRET assay was developed to monitor the inhibitory effects of compounds described in the disclosure on HCV viral replication. HUH-7 cells, constitutively expressing the HCV replicon, were grown in Dulbecco's Modified Eagle Media (DMEM) (Gibco-BRL) containing 10% Fetal calf serum (FCS) (Sigma) and 1 mg/ml G418 (Gibco-BRL). Cells were seeded the night before (1.5×10^4 cells/well) in 96-well tissue-culture sterile plates. Compound and no compound controls were prepared in DMEM containing 4% FCS, 1:100 Penicillin/Streptomysin (Gibco-BRL), 1:100 L-glutamine and 5% DMSO in the dilution plate (0.5% DMSO final concentration in the assay). Compound/DMSO mixes were added to the cells and incubated for 4 days at 37° C. After 4 days, cells were first assessed for cytotoxicity using alamar Blue (Trek Diagnotstic Systems) for a CC50 reading. The toxicity of compound (CC50) was determined by adding 1/10th volume of alamar Blue to the media incubating the cells. After 4 h, the fluorescence signal from each well was read, with an excitation wavelength at 530 nm and an emission wavelength of 580 nm, using the Cytofluor Series 4000 (Perspective Biosystems). Plates were then rinsed thoroughly with Phosphate-Buffered Saline (PBS) (3 times 150 μl). The cells were lysed with 25 μl of a lysis assay reagent containing an HCV protease substrate (5× cell Luciferase cell culture lysis reagent (Promega #E153A) diluted to 1× with distilled water, NaCl added to 150 mM final, the FRET peptide substrate (as described for the enzyme assay above) diluted to 10 μM final from a 2 mM stock in 100% DMSO. […]. The plate was then placed into the Cytofluor 4000 instrument which had been set to 340 nm excitation/490 nm emission, automatic mode for 21 cycles and the plate read in a kinetic mode. EC50 determinations were carried out as described for the IC50 determinations.

[2] = target: T1, porcine pancreatic elastase (PPE) (Sus scrofa, UniProt P00772); experiment: Specificity assay, porcine pancreatic elastase; format: biochemical; settings: 2 h enzyme-inhibitor pre-incubation; read-out: PPE activity in the specificity assays (IC50)
T1 construct: purchased Sigma
T1 sequence (P00772 27-266): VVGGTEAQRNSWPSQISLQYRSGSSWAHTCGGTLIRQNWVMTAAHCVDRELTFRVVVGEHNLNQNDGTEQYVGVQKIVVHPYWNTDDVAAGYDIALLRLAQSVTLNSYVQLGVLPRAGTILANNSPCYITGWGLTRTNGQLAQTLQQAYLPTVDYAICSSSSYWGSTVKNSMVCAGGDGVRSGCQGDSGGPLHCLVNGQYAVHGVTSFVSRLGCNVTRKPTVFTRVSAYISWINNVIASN
Method: (§1) The specificities of compounds of the present disclosure were determined against a variety of serine proteases: human neutrophil elastase (HNE), porcine pancreatic elastase (PPE) and human pancreatic chymotrypsin and one cysteine protease: human liver cathepsin B. In all cases a 96-well plate format protocol using calorimetric p-nitroaniline (pNA) substrate specific for each enzyme was used as described previously (PCT Patent Application No. WO 00/09543) with some modifications to the serine protease assays. All enzymes were purchased from Sigma while the substrates were from Bachem.
(§2) Each assay included a 2 h enzyme-inhibitor pre-incubation at room temperature followed by addition of substrate and hydrolysis to 30% conversion as measured on a Spectramax Pro microplate reader. Compound concentrations varied from 100 to 0.4 μM depending on their potency. […]
(§3) The percentage of inhibition was calculated using the formula: [1−((UVinh−UVblank)/(UVctl−UVblank))]×100 […]

human liver cathepsin B = target: T2, human liver cathepsin B (Homo sapiens, UniProt P07858); experiment: Specificity assay, cathepsin B; format: biochemical; settings: 2 h enzyme-inhibitor pre-incubation; read-out: Cathepsin B activity in the specificity assays (IC50)
T2 construct: purchased Sigma; host or cells: human liver
Method: as §1, §2, §3

C=C[C@@H]1C[C@]1(NC(=O)[C@@H]1C[C@@](O)(c2ccc(-c3ccccc3)cc2)CN1C(=O)[C@@H](NC(=O)OC(C)(C)C)C(C)(C)C)C(=O)NS(=O)(=O)C1CC1 [Compound 3]
EC50 ([1]; 96 h, HUH-7 replicon cells, 4 days, read-out: EC50 in the replicon FRET assay): 28 nM
EC50 ([1]; Huh-7, HCV replicon cell assay, read-out: Activity Range (EC50)): 10 to 1000 nM
IC50 [2]: > 100000 nM
IC50 (human liver cathepsin B): 2000 nM

Reference: US7592336B2, “Hepatitis C virus inhibitors” (Bristol-Myers Squibb Company, priority 2005, dated 2009)
